Test results published in US8026257B2 (Bristol-Myers Squibb Company, priority 2007, dated 2011).

Legend:
[1] = molecular target: T1, NK-1 (Homo sapiens, UniProt P25103); experiment: NK1 radioligand binding assay ([125I]Substance P, U373 membranes); conditions: U373 cell membranes, 200 pM [125I]Substance P, 1 hour at room temperature
T1 construct: 30 ul/well of a 2×U373 membrane preparation
Description: (§1) NK-1 Binding assay. Crude membrane suspensions were prepared for the NK1 and SERT radioligand binding assays from U373 cells or recombinant HEK-293 cells expressing hSERT, respectively. Cells were harvested from T-175 flasks as follows. The medium is removed from the flasks and the cells rinsed with HBSS without Ca and without Mg. The cells are then incubated for 5-10 minutes in 10 mM Tris-Cl, pH 7.5, 5 mM EDTA before the cells are lifted with a combination of pipetting and scraping, as needed. To prepare membranes, the cell suspension is collected into centrifuge bottles and homogenized for 30 seconds with a Polytron homogenizer. The suspension is centrifuged for 30 min@32,000×g, 4° C., then the supernatant is decanted and the pellet resuspended and homogenized in 50 mM Tris-Cl, pH 7.5, 1 mM EDTA for 10 seconds. The suspension is then centrifuged again for 30 min@32,000×g, 4° C. The supernatant is decanted and the pellet resuspended in 50 mM Tris-Cl, pH 7.5, 1 mM EDTA and briefly homogenized. A Bradford assay (Bio-rad) is performed and the membrane preparation diluted to 2 mg/ml with 50 mM Tris-Cl, pH 7.5, 1 mM EDTA. Aliquots are prepared, and then frozen and stored at −80° C.
NK1 radioligand binding assay. Compounds are dissolved in 100% DMSO at a concentration 100× the desired highest assay concentration, serially diluted 1:3 in 100% DMSO, and 0.6 ul/well of each solution is dispensed to a Nunc polypropylene, round bottom, 384 well plate. 100% inhibition is defined with 0.6 ul/well of 1 mM L-733,060 (Sigma L-137) dissolved in DMSO. 30 ul/well of a 2×U373 membrane preparation (267 ug/ml in 100 mM Tris-Cl, pH 7.5, 6 mM MgCl2, 0.2% (v/v) Sigma mammalian protease inhibitor cocktail (Sigma P-8340), and 4 ug/ml chymostatin, Sigma C-7268) and 30 ul/well of a 2× radioligand solution (400 pM [^125I]Substance P (Perkin ElmerNEX-190) in 1% (w/v) BSA (Sigma A-2153), 0.1 mg/ml bacitracin, Sigma B-0125) are added to the well and the reaction incubated for 1 hour at room temperature. The contents of the assay plate are then transferred to a Millipore MultiscreenHTS GF/B filter plate which has been pretreated with 0.5% PEI for at least one hour. The plate is vacuum filtered and washed with 7 washes of 100 ul/well of 20 mM Tris-Cl, pH 7.5, 0.5% (w/v) BSA chilled to 4° C. The filtration and washing is completed in less than 90 s. The plates are air-dried overnight, 12 ul/well of MicroScint scintillation fluid added, and the plates counted in a Trilux.
(§2) Data analysis. The raw data are normalized to percent inhibition using control wells defining 0% (DMSO only) and 100% (selective inhibitor) inhibition which are run on each plate. Each plate is run in triplicate, and the concentration response curve thus generated is fit using the four-parameter dose response equation, Y=Bottom+(Top-Bottom)/(1+10^((LogIC50−X)*HillSlope)) in order to determine the IC50 value for each compound. The radioligand concentration chosen for each assay corresponds to the Kd concentration determined through saturation binding analysis for each assay.

[2] = molecular target: hSERT (Homo sapiens, UniProt P31645); experiment: SERT radioligand binding assay ([125I]RTI-55, HEK-hSERT membranes); conditions: HEK-293 hSERT membranes, 260 pM [125I]RTI-55, 1 hour at room temperature; read-out: SERT IC50
hSERT, sequence (P31645 whole entry): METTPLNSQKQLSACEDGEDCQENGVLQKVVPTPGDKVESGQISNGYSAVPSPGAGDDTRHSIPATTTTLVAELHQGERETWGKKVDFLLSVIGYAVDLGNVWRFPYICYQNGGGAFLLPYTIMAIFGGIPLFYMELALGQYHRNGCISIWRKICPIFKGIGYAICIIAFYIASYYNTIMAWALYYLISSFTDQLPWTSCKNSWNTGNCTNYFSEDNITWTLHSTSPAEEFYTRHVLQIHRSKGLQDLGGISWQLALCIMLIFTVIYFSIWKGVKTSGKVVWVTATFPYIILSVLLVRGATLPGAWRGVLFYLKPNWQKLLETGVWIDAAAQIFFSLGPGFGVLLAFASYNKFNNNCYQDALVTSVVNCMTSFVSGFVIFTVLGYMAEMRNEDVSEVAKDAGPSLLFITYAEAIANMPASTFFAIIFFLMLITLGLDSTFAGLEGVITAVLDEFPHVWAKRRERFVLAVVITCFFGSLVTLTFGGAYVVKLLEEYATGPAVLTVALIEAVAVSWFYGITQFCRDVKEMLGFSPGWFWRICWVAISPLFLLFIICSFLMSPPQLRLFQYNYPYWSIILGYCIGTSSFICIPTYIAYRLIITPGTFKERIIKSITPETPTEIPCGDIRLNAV
Description: as §1
SERT radioligand binding assay. Compounds are dissolved in 100% DMSO at a concentration 100× the desired highest assay concentration, serially diluted 1:3 in 100% DMSO, and 0.4 ul/well of each solution is dispensed to a Nunc polypropylene, round bottom, 384 well plate. 100% inhibition is defined with 0.4 ul/well of 1 mM fluoxetine (Sigma F-132) dissolved in DMSO. 20 ul/well of a 2× HEK-hSERT membrane preparation (15 ug/ml in 50 mM Tris-Cl, pH 7.5, 120 mM NaCl, 5mM KCl) and 20 ul/well of a 2× radioligand solution (520 pM [^125I]RTI-55 (Perkin-Elmer NEX-272) in 50 mM Tris-Cl, pH 7.5, 120 mM NaCl, 5mM KCl) are added to each well and the reaction incubated for 1 hour at room temperature. The contents of the assay plate are then transferred to a Millipore MultiscreenHTs GF/B filter plate which has been pretreated with 0.5% PEI for at least one hour. The plate is vacuum filtered and washed with 7 washes of 100 ul/well of 50 mM Tris-Cl, pH 7.5, 120 mM NaCl, 5 mM KCl chilled to 4° C. The filtration and washing is completed in less than 90 s. The plates are air-dried overnight, 12 ul/well of MicroScint scintillation fluid added, and the plates counted in a Trilux.
as §2

T1 sequence (P25103 whole entry): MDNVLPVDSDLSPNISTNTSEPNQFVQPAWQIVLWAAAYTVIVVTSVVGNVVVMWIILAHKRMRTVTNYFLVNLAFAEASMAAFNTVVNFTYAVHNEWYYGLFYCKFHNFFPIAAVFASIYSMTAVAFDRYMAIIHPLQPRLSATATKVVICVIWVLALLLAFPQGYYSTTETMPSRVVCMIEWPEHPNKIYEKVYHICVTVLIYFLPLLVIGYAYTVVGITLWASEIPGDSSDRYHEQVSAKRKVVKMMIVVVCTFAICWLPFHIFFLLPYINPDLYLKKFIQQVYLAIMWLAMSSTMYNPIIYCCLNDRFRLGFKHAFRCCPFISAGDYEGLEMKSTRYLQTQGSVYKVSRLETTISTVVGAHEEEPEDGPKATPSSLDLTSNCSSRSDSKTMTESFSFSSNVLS

Row | Structure (SMILES) | IC50 [1] | IC50 [2]
1 | CC(OCC1(c2ccccc2)CCNCC1)c1cc(C(F)(F)F)cc2cn[nH]c12 (racemic) [Example 20, (±)-7-(1-((4-Phenylpiperidin-4-yl)methoxy)ethyl)-5-(trifluoromethyl)-1H-indazole] | 0.01 to 100 nM | 0.01 to 100 nM
2 | CC(OCC1(c2ccccc2)CCN(C)CC1)c1cc(C(F)(F)F)cc2cn[nH]c12 (racemic) [Example 21, (±)-7-(1-((1-Methyl-4-phenylpiperidin-4-yl)methoxy)ethyl)-5-(trifluoromethyl)-1H-indazole] | 0.01 to 100 nM | 0.01 to 100 nM
3 | CC(OCC1(c2ccccc2)CCNCC1)c1cc(Cl)cc2cn[nH]c12 (racemic) [Example 38, (±)-5-Chloro-7-(1-((4-phenylpiperidin-4-yl)methoxy)ethyl)-1H-indazole] | 0.01 to 100 nM | 0.01 to 100 nM
4 | CC(OCC1(c2ccccc2)CCN(C)CC1)c1cc(Cl)cc2cn[nH]c12 (racemic) [Example 39, (±)-5-Chloro-7-(1-((1-methyl-4-phenylpiperidin-4-yl)methoxy)ethyl)-1H-indazole] | 0.01 to 100 nM | 0.01 to 100 nM
5 | CC(OCC1(c2ccccc2)CCNCC1)c1cc(Cl)cc2cnn(C)c12 (racemic) [Example 40, (±)-5-Chloro-1-methyl-7-(1-((4-phenylpiperidin-4-yl)methoxy)ethyl)-1H-indazole] | 0.01 to 100 nM | 0.01 to 100 nM
6 | CC(OCC1(c2ccccc2)CCN(C)CC1)c1cc(C(F)(F)F)cc2c(C#N)n[nH]c12 (racemic) [Example 42, (±)-7-(1-((1-methyl-4-phenylpiperidin-4-yl)methoxy)ethyl)-5-(trifluoromethyl)-1H-indazole-3-carbonitrile] | 0.01 to 100 nM | 100 to 300 nM
7 | Cc1n[nH]c2c(C(C)OCC3(c4ccccc4)CCNCC3)cc(C(F)(F)F)cc12 (racemic) [Example 43, (±)-3-Methyl-7-(1-((4-phenylpiperidin-4-yl)methoxy)ethyl)-5-(trifluoromethyl)-1H-indazole] | 0.01 to 100 nM | 0.01 to 100 nM
8 | Cc1n[nH]c2c(C(C)OCC3(c4ccccc4)CCN(C)CC3)cc(C(F)(F)F)cc12 (racemic) [Example 44, (±)-3-Methyl-7-(1-((1-methyl-4-phenylpiperidin-4-yl)methoxy)ethyl)-5-(trifluoromethyl)-1H-indazole] | 0.01 to 100 nM | 0.01 to 100 nM
9 | CC(OCC1(c2ccc(F)cc2)CCN(C)CC1)c1cc(Br)cc2cn[nH]c12 (racemic) [Example 46, (±)-5-Bromo-7-(1-((4-(4-fluorophenyl)-1-methylpiperidin-4-yl)methoxy)ethyl)-1H-indazole] | 0.01 to 100 nM | 0.01 to 100 nM
10 | CC(OCC1(c2ccc(F)cc2)CCN(C)CC1)c1cc(C2CC2)cc2cn[nH]c12 (racemic) [Example 47, (±)-5-Cyclopropyl-7-(1-((4-(4-fluorophenyl)-1-methylpiperidin-4-yl)methoxy)ethyl)-1H-indazole] | 0.01 to 100 nM | 0.01 to 100 nM
11 | CC(OCC1(c2ccc(F)cc2)CCN(C)CC1)c1cc(C#N)cc2cn[nH]c12 (racemic) [Example 48, (±)-7-(1-((4-(4-Fluorophenyl)-1-methylpiperidin-4-yl)methoxy)ethyl)-1H-indazole-5-carbonitrile] | 0.01 to 100 nM | 0.01 to 100 nM
12 | Cc1cc(C(C)OCC2(c3ccc(F)cc3)CCN(C)CC2)c2[nH]ncc2c1 (racemic) [Example 49, (±)-7-(1-((4-(4-Fluorophenyl)-1-methylpiperidin-4-yl)methoxy)ethyl)-5-methyl-1H-indazole] | 0.01 to 100 nM | 0.01 to 100 nM
13 | CC(OCC1(c2ccc(F)cc2)CCN(C)CC1)c1cc(N2CCOCC2)cc2cn[nH]c12 (racemic) [Example 50, (±)-4-7-(1-((4-(4-Fluorophenyl)-1-methylpiperidin-4-yl)methoxy)ethyl)-1H-indazole-5-yl)morpholino] | 100 to 300 nM | 0.01 to 100 nM
14 | COc1cc(C(C)OCC2(c3ccc(F)cc3)CCN(C)CC2)c2[nH]ncc2c1 (racemic) [Example 52, (±)-7-(1-((4-(4-Fluorophenyl)-1-methylpiperidin-4-yl)methoxy)ethyl)-5-methoxy-1H-indazole] | 0.01 to 100 nM | 0.01 to 100 nM
15 | CC(OCC1(c2ccc(F)cc2)CCN(C)CC1)c1cc(F)cc2cn[nH]c12 (racemic) [Example 53, (±)-5-Fluoro-7-(1-((4-(4-fluorophenyl)-1-methylpiperidin-4-yl)methoxy)ethyl)-1H-indazole] | 0.01 to 100 nM | 0.01 to 100 nM
16 | Cc1n[nH]c2c(C(C)OCC3(c4ccc(F)cc4)CCN(C)CC3)cc(Cl)cc12 (racemic) [Example 55, (±)-5-Chloro-7-(1-((4-(4-fluorophenyl)-1-methylpiperidin-4-yl)methoxy)ethyl)-3-methyl-1H-indazole] | 0.01 to 100 nM | 0.01 to 100 nM
17 | CC(OCC1(c2ccc(F)cc2)CCN(C)CC1)c1cc(Cl)cc2c(C3CC3)n[nH]c12 (racemic) [Example 56, (±)-5-Chloro-3-cyclopropyl-7-(1-((4-(4-fluorophenyl)-1-methylpiperidin-4-yl)methoxy)ethyl)-1H-indazole] | 0.01 to 100 nM | 0.01 to 100 nM
18 | CC(OCC1(c2ccc(F)cc2)CCN(C)CC1)c1cc(Cl)cc2c(Br)n[nH]c12 (racemic) [Example 57, (±)-3-Bromo-5-chloro-7-(1-((4-(4-fluorophenyl)-1-methylpiperidin-4-yl)methoxy)ethyl)-1H-indazole] | 0.01 to 100 nM | 0.01 to 100 nM
19 | CC(OCC1(c2ccc(F)cc2)CCN(C)CC1)c1cc(Cl)cc2cn(C3CC3)nc12 (racemic) [Example 58, (±)-5-Chloro-2-cyclopropyl-7-(1-((4-(4-fluorophenyl)-1-methylpiperidin-4-yl)methoxy)ethyl)-2H-indazole] | 0.01 to 100 nM | 0.01 to 100 nM
20 | CC(OCC1(c2ccc(F)cc2)CCN(C)CC1)c1cc(Cl)cc2c(Cl)n[nH]c12 (racemic) [Example 59, (±)-3,5-Dichloro-7-(1-((4-(4-fluorophenyl)-1-methylpiperidin-4-yl)methoxy)ethyl)-1H-indazole] | 0.01 to 100 nM | 0.01 to 100 nM
21 | Cc1cc(C(C)OCC2(c3ccc(F)cc3)CCN(C)CC2)c2c(cnn2CC(F)F)c1 (racemic) [Example 60, (±)-1-(2,2-Difluoroethyl)-7-(1-((4-(4-fluorophenyl)-1-methylpiperidin-4-yl)methoxy)ethyl)-5-methyl-1H-indazole] | 0.01 to 100 nM | 0.01 to 100 nM
22 | C[C@@H](OCC1(c2ccc(F)cc2)CCN(C)CC1)c1cc(Cl)cc2c(Cl)n(CC(F)(F)F)nc12 [Example 117, (R)-3,5-dichloro-7-(1-((4-(4-fluorophenyl-1-methyl)piperidine-4-yl)methoxy)ethyl)-2-(2,2,2-trifluoroethyl)-1H-indazole] | 0.01 to 100 nM | 
